What was measured:
DLD-1 BRCA2−/− cells = assay: Homologous recombination synthetic lethal inhibition of proliferation, DLD-1 BRCA2-/- (Cell Titre Glo 3D); type: cell-based; details: Homo sapiens, DLD-1, 288 h, DLD-1 BRCA2−/− cells, 12 days; read-out: POLQ PD Prolif Lumin BRCA2 −/− mean pIC50 (converted)
Procedure, shortened: (§1)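 Proliferation of HR-deficient DLD-1 BRCA2−/− versus isogenic wild-type DLD-1 was measured by ATP luminescence (CellTiter-Glo 3D). Compound exposure lasted 12 or 7 days, respectively, with a fresh dose on day 6. IC50 was the concentration halving maximal signal.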

DLD-1 cells = assay: Inhibition of proliferation, DLD-1 BRCA2 wt control (Cell Titre Glo 3D); type: cell-based; details: Homo sapiens, DLD-1, 168 h, DLD-1 BRCA2 wt cells, 7 days; read-out: POLQ PD Prolif Lumin DLD1 mean pIC50 (converted)
Procedure, shortened: as §1

Structure (SMILES)	IC50 (DLD-1 cells)	IC50 (DLD-1 BRCA2−/− cells)
CC(=O)NCCCOc1ccc(-c2nc3cc(OC(C)C)ccc3n2Cc2ccccc2)c(Cl)c1 [Example A3, N-(3-(4-(1-benzyl-5-isopropoxy-1H-benzo[d]imidazol-2-yl)-3-chlorophenoxy)propyl)acetamide]	5.01 µM	0.501 µM
Cc1cc(OCCN2CCN(C)CC2)ncc1-c1nc2cc(OC(C)C)ccc2n1Cc1cccc(Cl)c1 [Example A7, 1-(3-chlorobenzyl)-5-isopropoxy-2-(4-methyl-6-(2-(4-methylpiperazin-1-yl)ethoxy)pyridin-3-yl)-1H-benzo[d]imidazole]	1.58 µM	0.251 µM
COc1ccc(-c2nc3cc(OC(C)C)ccc3n2Cc2ccccc2)c(Cl)c1 [Example A12, 1-benzyl-2-(2-chloro-4-methoxyphenyl)-5-isopropoxy-1H-benzo[d]imidazole]	> 10 µM	2 µM
CC(C)Oc1ncnc2c1nc(-c1ccc(OCCN3CCN(C)CC3)cc1)n2Cc1ccccc1 [Example B1, 9-benzyl-6-isopropoxy-8-(4-(2-(4-methyl-piperazin-1-yl)ethoxy)phenyl)-9H-purine]	7.94 µM	1 µM
Cc1cc(OCCN2CCNCC2)ccc1-c1nc2c(OC(C)C)ncnc2n1Cc1ccccc1 [Example B2, 9-benzyl-6-isopropoxy-8-(2-methyl-4-(2-(piperazin-1-yl)ethoxy)phenyl)-9H-purine]	6.31 µM	0.501 µM
CC(=O)N1CCN(CCOc2ccc(-c3nc4c(OC(C)C)ncnc4n3Cc3ccccc3)c(C)c2)CC1 [Example B4, 1-(4-(2-(4-(9-benzyl-6-isopropoxy-9H-purin-8-yl)-3-methyl-phenoxy)ethyl)piperazin-1-yl)ethan-1-one]	> 10 µM	0.794 µM
Cc1cc(OCCN2CCN(C)CC2)ccc1-c1nc2c(OC3(C)CC3)ncnc2n1Cc1ccccc1 [Example C1, 9-benzyl-8-(2-methyl-4-(2-(4-methylpiperazin-1-yl)ethoxy)phenyl)-6-(1-methylcyclopropoxy)-9H-purine]	5.01 µM	0.1 µM
CC(=O)N1CCN(c2cc(C)c(-c3nc4c(OC5(C)CC5)ncnc4n3Cc3ccccc3)cn2)CC1 [Example C2, 1-(4-(5-(9-benzyl-6-(1-methylcyclopropoxy)-9H-purin-8-yl)-4-methylpyridin-2-yl)piperazin-1-yl)ethan-1-one]	> 10 µM	0.316 µM
Cc1cc(OCCN2CCN(C)CC2)ncc1-c1nc2c(OC3(C)CC3)ncnc2n1Cc1ccccc1 [Example C3, 9-benzyl-8-(4-methyl-6-(2-(4-methylpiperazin-1-yl)ethoxy)pyridin-3-yl)-6-(1-methylcyclopropoxy)-9H-purine]	7.94 µM	0.316 µM
Cc1cc(N2CCNCC2)ncc1-c1nc2c(OC3(C)CC3)ncnc2n1Cc1ccccc1 [Example C5, 9-benzyl-8-(4-methyl-6-(piperazin-1-yl)pyridin-3-yl)-6-(1-methylcyclopropoxy)-9H-purine]	> 10 µM	0.316 µM
CN1CCN(C(=O)COc2ccc(-c3nc4c(OC5(C)CC5)ncnc4n3Cc3ccccc3)c(Cl)c2)CC1 [Example C9, 2-(4-(9-benzyl-6-(1-methylcyclopropoxy)-9H-purin-8-yl)-3-chloro-phenoxy)-1-(4-methyl-piperazin-1-yl)ethan-1-one]	> 10 µM	0.126 µM
CC(=O)N1CCN(CCOc2cccc(-c3nc4c(OC5(C)CC5)ncnc4n3Cc3ccccc3)c2Cl)CC1 [Example D8, 1-(4-(2-(3-(9-benzyl-6-(1-methylcyclopropoxy)-9H-purin-8-yl)-2-chlorophenoxy)ethyl)piperazin-1-yl)ethan-1-one]	6.31 µM	0.0501 µM
CN1CCC(Oc2cccc(-c3nc4c(OC5(C)CC5)ncnc4n3Cc3ccccc3)c2Cl)CC1 [Example D9, 9-benzyl-8-(2-chloro-3-((1-methylpiperidin-4-yl)oxy)phenyl)-6-(1-methylcyclopropoxy)-9H-purine]	2 µM	0.158 µM
CC1(Oc2ncnc3c2nc(-c2cccc(OCCN4CCNCC4)c2Cl)n3Cc2ccccc2)CC1 [Example D10, 9-benzyl-8-(2-chloro-3-(2-(piperazin-1-yl)ethoxy)phenyl)-6-(1-methylcyclopropoxy)-9H-purine]	5.01 µM	0.126 µM
CC1(Oc2ncnc3c2nc(-c2cccc(OC4CCNCC4)c2Cl)n3Cc2ccccc2)CC1 [Example D11, 9-benzyl-8-(2-chloro-3-(piperidin-4-yloxy)phenyl)-6-(1-methylcyclopropoxy)-9H-purine]	3.16 µM	0.251 µM
CN1CCN(CCOc2cccc(-c3nc4c(OC5(C)CC5)ncnc4n3Cc3ccccc3)c2Cl)CC1 [Example D12, 9-benzyl-8-(2-chloro-3-(2-(4-methylpiperazin-1-yl)ethoxy)phenyl)-6-(1-methylcyclopropoxy)-9H-purine]	5.01 µM	0.0501 µM

Second part, led by results:

IC50 (DLD-1 cells)	Structure (SMILES)	IC50 (DLD-1 BRCA2−/− cells)
2.51 µM	CN(C)[C@@H]1CCN(c2ccc(-c3nc4c(OC5(C)CC5)ncnc4n3Cc3ccccc3)c(Cl)c2)C1 [Example C4, (R)-1-(4-(9-benzyl-6-(1-methylcyclopropoxy)-9H-purin-8-yl)-3-chlorophenyl)-N,N-dimethylpyrrolidin-3-amine]	0.2 µM
> 10 µM	COc1cccc(-c2nc3c(OC4(C)CC4)ncnc3n2Cc2ccccc2)c1Cl [Example C6, 9-benzyl-8-(2-chloro-3-methoxyphenyl)-6-(1-methylcyclopropoxy)-9H-purine]	0.0794 µM
6.31 µM	CC1(Oc2ncnc3c2nc(-c2ccc(N4CCNCC4)cc2Cl)n3Cc2ccccc2)CC1 [Example C7, 9-benzyl-8-(2-chloro-4-(piperazin-1-yl)phenyl)-6-(1-methylcyclopropoxy)-9H-purine]	0.251 µM
6.31 µM	CC1(Oc2ncnc3c2nc(-c2ccc(OCC(=O)N4CCNCC4)cc2Cl)n3Cc2ccccc2)CC1 [Example C8, 2-(4-(9-benzyl-6-(1-methylcyclopropoxy)-9H-purin-8-yl)-3-chloro-phenoxy)-1-(piperazin-1-yl)ethan-1-one]	0.316 µM
6.31 µM	CC(=O)N1CCC(COc2ccc(-c3nc4c(OC5(C)CC5)ncnc4n3Cc3ccccc3)c(Cl)c2)CC1 [Example D1, 1-(4-((4-(9-benzyl-6-(1-methylcyclopropoxy)-9H-purin-8-yl)-3-chlorophenoxy)methyl)piperidin-1-yl)ethan-1-one]	0.0794 µM
2.51 µM	CC(=O)N1CCN(CCOc2ccc(-c3nc4c(OC5(C)CC5)ncnc4n3Cc3ccccc3)c(Cl)c2)CC1 [Example D5, 1-(4-(2-(4-(9-benzyl-6-(1-methylcyclopropoxy)-9H-purin-8-yl)-3-chlorophenoxy)ethyl)piperazin-1-yl)ethan-1-one]	0.0631 µM
5.01 µM	CC1(Oc2ncnc3c2nc(-c2ccc(OCCCN)cc2Cl)n3Cc2ccccc2)CC1 [Example D6, 3-(4-(9-benzyl-6-(1-methylcyclopropoxy)-9H-purin-8-yl)-3-chlorophenoxy)propan-1-amine]	0.631 µM
6.31 µM	CC(=O)NCCCOc1ccc(-c2nc3c(OC4(C)CC4)ncnc3n2Cc2ccccc2)c(Cl)c1 [Example D7, N-(3-(4-(9-benzyl-6-(1-methylcyclopropoxy)-9H-purin-8-yl)-3-chlorophenoxy)propyl)acetamide]	0.126 µM
> 10 µM	CC1(Oc2ncnc3c2nc(-c2ccc(OCCN4CCNC(=O)C4)cc2Cl)n3Cc2ccccc2)CC1 [Example D15, 4-(2-(4-(9-benzyl-6-(1-methylcyclopropoxy)-9H-purin-8-yl)-3-chlorophenoxy)ethyl)piperazin-2-one]	0.0794 µM
3.98 µM	CC1(Oc2ncnc3c2nc(-c2ccc(OC[C@H]4CCN4)cc2Cl)n3Cc2ccccc2)CC1 [Example D16, (R)-8-(4-(azetidin-2-ylmethoxy)-2-chlorophenyl)-9-benzyl-6-(1-methylcyclopropoxy)-9H-purine]	0.158 µM
3.16 µM	CC1(Oc2ncnc3c2nc(-c2ccc(O[C@H]4CCNC4)cc2Cl)n3Cc2ccccc2)CC1 [Example D17, (S)-9-benzyl-8-(2-chloro-4-(pyrrolidin-3-yloxy)phenyl)-6-(1-methylcyclopropoxy)-9H-purine]	0.1 µM
3.16 µM	CC1(Oc2ncnc3c2nc(-c2ccc(OCCCN4CCNCC4)cc2Cl)n3Cc2ccccc2)CC1 [Example D18, 9-benzyl-8-(2-chloro-4-(3-(piperazin-1-yl)propoxy)phenyl)-6-(1-methylcyclopropoxy)-9H-purine]	0.126 µM
5.01 µM	CC1(Oc2ncnc3c2nc(-c2ccc(OCC4(F)CNC4)cc2Cl)n3Cc2ccccc2)CC1 [Example D19, 9-benzyl-8-(2-chloro-4-((3-fluoroazetidin-3-yl)methoxy)phenyl)-6-(1-methylcyclopropoxy)-9H-purine]	0.501 µM
> 10 µM	CN(C)C(=O)COc1ccc(-c2nc3c(OC4(C)CC4)ncnc3n2Cc2ccccc2)c(Cl)c1 [Example D20, 2-(4-(9-benzyl-6-(1-methylcyclopropoxy)-9H-purin-8-yl)-3-chlorophenoxy)-N,N-dimethylacetamide]	0.2 µM
> 10 µM	CNC(=O)COc1ccc(-c2nc3c(OC4(C)CC4)ncnc3n2Cc2ccccc2)c(Cl)c1 [Example D21, 2-(4-(9-benzyl-6-(1-methylcyclopropoxy)-9H-purin-8-yl)-3-chlorophenoxy)-N-methylacetamide]	0.126 µM
> 10 µM	CC(=O)N1CCN(CCCOc2ccc(-c3nc4c(OC5(C)CC5)ncnc4n3Cc3ccccc3)c(Cl)c2)CC1 [Example D22, 1-(4-(3-(4-(9-benzyl-6-(1-methylcyclopropoxy)-9H-purin-8-yl)-3-chlorophenoxy)propyl)piperazin-1-yl)ethan-1-one]	0.126 µM

— patent US20250195530A1, “POLQ INHIBITORS” (ASTRAZENECA AB, priority 2022, published 2025)
